We go through 4 compounds from BindingDB's records for doi:10.1111/cbdd.12663 (West China Hospital, 2016).

For orientation: IC50 means the concentration needed to halve the response being measured. A low value points to greater potency.

Holding throughout (experiment): DPP-IV Inhibition Screening Assay
One assay deals with Dipeptidyl peptidase 8 (Homo sapiens, UniProt Q6V1X1). As to the method: (§1) DPP-IV inhibition was measured by DPP-IV inhibitor screening assay kit (Cayman Chemical Company, Item No. 700210) following the manufacturer's instructions. Briefly, solutions of test compounds at varying concentrations were prepared in dimethyl sulfoxide (DMSO) and then diluted into assay buffer. Human recombinant DPP-IV was added to the dilutions and preincubated for 30 min at 37 °C before the reaction was initiated by the addition of fluorogenic substrate solution AMC (Gly-Pro-Aminomethylcoumarin). Human recombinant DPP-8 or DPP-9 was added to the dilutions and preincubated for 10 min at 22 °C before the reaction was initiated by the addition of fluorogenic DPP substrate. The kinetics of the reaction wasmonitored (excitation at 380 nm, emission at 460 nm).
Sequence of Dipeptidyl peptidase 8 (Q6V1X1 whole entry): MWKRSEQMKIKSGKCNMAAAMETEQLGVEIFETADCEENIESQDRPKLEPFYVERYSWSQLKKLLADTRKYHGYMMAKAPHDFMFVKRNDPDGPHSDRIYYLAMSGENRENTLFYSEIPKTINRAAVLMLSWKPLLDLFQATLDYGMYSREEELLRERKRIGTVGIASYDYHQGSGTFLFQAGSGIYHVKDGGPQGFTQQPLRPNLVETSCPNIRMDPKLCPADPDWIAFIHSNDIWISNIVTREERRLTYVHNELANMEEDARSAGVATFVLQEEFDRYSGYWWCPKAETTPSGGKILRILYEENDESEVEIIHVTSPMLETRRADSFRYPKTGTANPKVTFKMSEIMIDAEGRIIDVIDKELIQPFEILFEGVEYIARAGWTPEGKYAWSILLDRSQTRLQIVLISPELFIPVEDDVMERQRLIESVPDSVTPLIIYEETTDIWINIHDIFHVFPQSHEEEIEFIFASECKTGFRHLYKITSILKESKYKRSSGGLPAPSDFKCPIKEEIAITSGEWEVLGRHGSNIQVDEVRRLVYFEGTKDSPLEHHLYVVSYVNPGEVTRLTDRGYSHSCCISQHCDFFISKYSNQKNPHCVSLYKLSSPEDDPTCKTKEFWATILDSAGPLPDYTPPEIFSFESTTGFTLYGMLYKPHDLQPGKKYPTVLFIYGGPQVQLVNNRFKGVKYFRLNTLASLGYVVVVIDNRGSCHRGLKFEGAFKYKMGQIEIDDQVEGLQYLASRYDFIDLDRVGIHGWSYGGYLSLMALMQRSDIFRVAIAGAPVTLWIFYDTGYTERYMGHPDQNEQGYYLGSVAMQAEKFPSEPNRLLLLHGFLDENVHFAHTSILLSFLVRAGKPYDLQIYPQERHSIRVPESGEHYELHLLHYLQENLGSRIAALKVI

The target of assay [1] is Dipeptidyl peptidase 4 [K6R,T557I] (Homo sapiens, UniProt P27487, K6R/T557I). How it is done: as §1
Sequence of Dipeptidyl peptidase 4 [K6R,T557I] (P27487 whole entry K6R/T557I/D663E): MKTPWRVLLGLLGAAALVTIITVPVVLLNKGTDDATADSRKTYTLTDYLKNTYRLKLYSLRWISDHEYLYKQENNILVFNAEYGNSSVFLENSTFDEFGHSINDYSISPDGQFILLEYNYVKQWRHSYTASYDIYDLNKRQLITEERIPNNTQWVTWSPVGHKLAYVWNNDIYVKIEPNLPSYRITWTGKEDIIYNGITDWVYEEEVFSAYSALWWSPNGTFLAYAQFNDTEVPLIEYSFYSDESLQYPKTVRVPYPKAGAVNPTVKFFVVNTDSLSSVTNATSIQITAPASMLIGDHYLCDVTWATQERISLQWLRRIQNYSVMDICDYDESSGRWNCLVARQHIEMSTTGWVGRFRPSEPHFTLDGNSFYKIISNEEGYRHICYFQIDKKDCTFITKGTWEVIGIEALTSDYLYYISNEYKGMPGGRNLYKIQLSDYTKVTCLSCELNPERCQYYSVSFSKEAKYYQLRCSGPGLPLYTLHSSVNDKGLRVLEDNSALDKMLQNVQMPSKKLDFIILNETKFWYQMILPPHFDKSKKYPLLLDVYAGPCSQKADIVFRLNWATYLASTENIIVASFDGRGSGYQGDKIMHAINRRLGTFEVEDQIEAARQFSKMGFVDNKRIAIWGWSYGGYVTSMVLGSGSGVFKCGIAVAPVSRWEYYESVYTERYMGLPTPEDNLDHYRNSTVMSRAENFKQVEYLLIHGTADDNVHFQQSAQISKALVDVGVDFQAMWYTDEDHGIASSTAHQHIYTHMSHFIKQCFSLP
For another assay, the target named is Dipeptidyl peptidase 9 (Homo sapiens, UniProt Q86TI2). How it is done:
as §1

Sequence of Dipeptidyl peptidase 9 (Q86TI2 whole entry): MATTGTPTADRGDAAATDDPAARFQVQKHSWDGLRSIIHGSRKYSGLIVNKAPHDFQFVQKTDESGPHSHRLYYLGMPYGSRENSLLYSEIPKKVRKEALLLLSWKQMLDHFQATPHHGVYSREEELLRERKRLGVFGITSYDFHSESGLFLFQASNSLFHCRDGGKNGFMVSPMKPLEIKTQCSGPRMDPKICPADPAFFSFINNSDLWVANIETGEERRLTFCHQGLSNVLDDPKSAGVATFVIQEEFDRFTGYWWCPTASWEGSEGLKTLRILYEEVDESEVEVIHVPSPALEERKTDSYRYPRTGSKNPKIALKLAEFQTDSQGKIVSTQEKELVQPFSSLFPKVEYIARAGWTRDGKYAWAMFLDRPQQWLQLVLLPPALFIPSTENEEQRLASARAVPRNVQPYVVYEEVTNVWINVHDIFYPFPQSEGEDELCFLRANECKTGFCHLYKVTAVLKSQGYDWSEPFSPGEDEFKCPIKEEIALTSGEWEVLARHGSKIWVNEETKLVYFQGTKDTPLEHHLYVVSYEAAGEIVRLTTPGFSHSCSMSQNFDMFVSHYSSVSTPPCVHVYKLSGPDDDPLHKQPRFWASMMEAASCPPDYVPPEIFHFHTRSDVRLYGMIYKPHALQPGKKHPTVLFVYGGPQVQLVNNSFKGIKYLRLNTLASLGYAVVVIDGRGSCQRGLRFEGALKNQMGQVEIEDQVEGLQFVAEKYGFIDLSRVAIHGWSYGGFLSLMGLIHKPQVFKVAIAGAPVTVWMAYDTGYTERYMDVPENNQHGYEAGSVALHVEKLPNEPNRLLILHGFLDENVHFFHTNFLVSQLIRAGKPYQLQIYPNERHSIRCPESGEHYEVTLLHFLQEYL

As to `CC(C)=CCn1c(N2CCC[C@@H](N)C2)nc2c1c(=O)n(Cc1ccccc1C#N)c(=O)n2C` [(R)-40], the IC50 against Dipeptidyl peptidase 8 is > 100 µM; in assay [1], 0.0235 µM; on Dipeptidyl peptidase 9, > 100 µM.
On to `CC(C)=CCn1c(N2CCC[C@@H](N)C2)nc2c1c(=O)n(Cc1nc3ccccc3s1)c(=O)n2C` [(R)-43], for which the results for the IC50 (on Dipeptidyl peptidase 8; in assay [1]; against Dipeptidyl peptidase 9) were > 100 µM, 0.0362 µM and > 100 µM, respectively.
With `CC(C)=CCn1c(N2CCC[C@H](N)C2)nc2c1c(=O)n(Cc1ccccc1C#N)c(=O)n2C` [(S)-40], the 50% inhibitory concentration (IC50) on Dipeptidyl peptidase 8 was > 100 µM; in assay [1], 0.108 µM; on Dipeptidyl peptidase 9 it was > 100 µM.
On to `CC(C)=CCn1c(N2CCC[C@H](N)C2)nc2c1c(=O)n(Cc1nc3ccccc3s1)c(=O)n2C` [(S)-43], for which the IC50 is > 100 µM against Dipeptidyl peptidase 8, 0.0369 µM in assay [1] and > 100 µM against Dipeptidyl peptidase 9.
